Measurements taken from patent US10329354B2, “Modulation of efferocytosis pathways for treatment of atherosclerotic disease” (The Board of Trustees of the Leland Stanford Junior …, priority 2013, dated 2019).
Entries after “also recorded” stand apart in the source; their conditions may differ.

Assays:
[1] = system: CDKN2B-deficient SMCs; assay: Phagocytosis of CDKN2B-deficient SMCs by macrophages with anti-CD47 Ab; format: cell-based; details: FIG. 12
Source text: Implicating Cdkn2b in “efferocytosis”— the phagocytic clearance of apoptotic debris: an increase in the rate at which apoptotic debris was produced in this chronic disease model could not be observed (P=NS for TUNEL and Caspase assays at both Week 4 and Week 12). It was reasoned that loss of Cdkn2b might regulate the rate at which apoptotic debris is cleared in the developing atherosclerotic plaque. This process, known as “efferocytosis” (from the Greek meaning to carry the dead to the grave), was assessed with established in vitro flow cytometry-based co-culture phagocytosis assays.

[2] = system: CALR promoter; assay: CALR luciferase promoter reporter assay with TGF-β; format: cell-based, human; details: control-transfected HEK cells, TGFβ-1 0.5-10 ng/mL, 16 hours
Experimental: Calreticulin LightSwitch Promoter Reporter GoClones (RenSP, S721464), Empty vectors (S790005) and Cypridina TK Control constructs (pTK-Cluc, SN0322S) were obtained from SwitchGear Genomics (Menlo Park, Calif.) and transfected into HEK cells using Lipofectamine 2000 (Invitrogen). For knockdown assays, 5 pmol of anti-CDKN2B or control siRNA were co-transfected. For overexpression, CDKN2B (sc319536) and Rb expression plasmid (sc119971) and empty vector (pCMV6) were obtained from Origene and 100 ng of plasmid were co-transfected. Dual luciferase activity was measured with the LightSwitch Dual Assay System after 48 hours using a SpectraMax L luminometer (Molecular Devices), according to the manufacturer's instructions. In some experiments, media was changed to serum-free media after 24 hours of transfection. Studies were performed at baseline, and after the cells had been exposed to escalating doses of recombinant human TGFβ-1 (from Sigma, 0.5-10 ng/mL) for the final 16 hours prior to analysis. Relative luciferase activity (Renilla/Cypridina luciferase ratio) is expressed as the percentage change relative to the basal values obtained from control-transfected cells not exposed to TGF-β treatment.

[3] = system: CDKN2B; assay: CDKN2B expression in untransfected HCASMC after exogenous TGF-β; format: cell-based, human; details: FIG. 9B
Experimental: Human coronary artery SMC (HCASMC, Lonza, Walkersville, Md., passage #3-6) were propagated in SmGM-2 growth media (Lonza) containing 5% FBS. Human THP-1 monocytic cells, human embryonic kidney (HEK-293) and RAW 264.7 macrophages (ATCC) were grown in DMEM-growth media containing 10% FBS. Primary vascular smooth muscle cells were harvested from the aortas of Cdkn2b^+/+ and Cdkn2b^−/− mice, as previously described. Primary activated macrophages were harvested from mice 72 hrs after intraperitoneal injection of 2 ml of 4% thioglycollate, as previously described. To induce growth arrest and the expression of differentiation genes, SMC were serum starved in basal media (SmBM) for 72 hours, according to conventional protocols.
PCR RNA was isolated from cell lysates using the miRNeasy Mini Kit (Qiagen, Valencia, Calif.) according to the manufacturer's protocol. RNA was isolated from the murine organ samples using the Trizol method (Invitrogen). RNA was quantified with the Nanodrop machine ([…], Santa Clara, Calif.) For quantitation of gene transcription, cDNA was generated with M-MuLV reverse transcriptase, and then amplified on the ABI PRISM 7900HT with commercially available TaqMan primers (Applied Biosystems, Foster City, Calif.) and normalized to 18S internal controls, as previously described. A list of the primers and probes used in these studies is provided in below.

With “Hu5F9-G4: humanized anti-CD47 mAb engineered by CDR grafting of mouse sequences into a human IgG4 framework” the “increase in phagocytosis of SMCs by Mϕ's” value ([1]; CDKN2B-deficient SMCs) was ~72% and the “phagocytosis of CDKN2B-deficient SMCs by macrophages” value [1] was “enables macrophages to phagocytose”.
In the case of “TGF-β: recombinant human TGFβ-1 (from Sigma)”, the “CALR expression (promoter reporter activity)” value [2] is reported as “increased in response to TGF-β treatment in a dose-dependent manner; also recorded: increased by TGF-β in a dose-dependent manner” and the CDKN2B expression [3] is reported as “increased their expression of CDKN2B”.
